The values that follow are results of earlier work, collected in US20250032488A1, “METHODS OF TREATMENT USING LOU064” (NOVARTIS AG, priority 2021, published 2025).

“And” between values parts separate entries of the source, which are not always exact repeats. Identical values can stand only once. Like-named read-outs stand apart in the source and are kept apart here.

For data set [1] the following is noted: human, in vivo; cited from earlier work.
For data set [2] the following is noted: 75 mg b.i.d., Phase II; cited from earlier work.
The conditions of data set [3]: higher dose treatment arms, phase IIa; cited from earlier work.

Consider `C=CC(=O)N1CCC[C@@H](n2c(=O)n(-c3ccc(Oc4ccccc4)cc3)c3c(N)nccc32)C1` [tolebrutinib], for which, in data set [1], the Dose-limiting side effect result was “dose-limiting diarrhea”.

In the case of `C=CC(=O)N1CCC(CNc2ncnc(N)c2-c2ccc(Oc3ccccc3)cc2)CC1` [evobrutinib], the Dose-limiting side effect result in data set [2] was “dose-limiting liver enzyme elevations”. As for `C[C@H]1CN(C2COC2)CCN1c1ccc(Nc2cc(-c3ccnc(N4CCn5c(cc6c5CC(C)(C)C6)C4=O)c3CO)cn(C)c2=O)nc1` [fenebrutinib], the “Subjects with transient grade 3 elevations of ALT and/or AST” value in data set [3] is 8.3% and 6.3%.
